{"source": "patent US9173876B2", "about": "“Preparation and therapeutic applications of (2S,3R)-N-2-((3-pyridinyl)methyl)-1-azabicyclo[2.2.2]oct-3-yl)-3,5-difluorobenzamide” (Targacept, Inc., priority 2009, dated 2015)", "key": {"[1]": {"target": "α7 nicotinic ACh receptors (Homo sapiens, UniProt P36544)", "sequence (P36544 23-502)": "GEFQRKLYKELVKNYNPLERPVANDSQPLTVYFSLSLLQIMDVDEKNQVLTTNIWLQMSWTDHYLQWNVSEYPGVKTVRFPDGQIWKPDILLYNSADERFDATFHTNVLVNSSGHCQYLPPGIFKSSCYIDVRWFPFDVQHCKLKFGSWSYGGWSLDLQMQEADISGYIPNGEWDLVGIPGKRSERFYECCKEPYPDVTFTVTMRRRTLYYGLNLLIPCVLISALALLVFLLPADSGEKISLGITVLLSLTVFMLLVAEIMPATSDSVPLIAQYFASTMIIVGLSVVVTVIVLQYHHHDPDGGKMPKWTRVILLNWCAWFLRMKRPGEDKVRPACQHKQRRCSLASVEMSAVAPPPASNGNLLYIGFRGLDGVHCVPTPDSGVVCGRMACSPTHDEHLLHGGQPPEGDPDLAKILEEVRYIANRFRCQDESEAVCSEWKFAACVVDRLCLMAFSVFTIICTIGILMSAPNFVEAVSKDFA", "test": "Electrophysiology, dose-response at α7 nicotinic ACh receptors", "type": "cell-based"}, "[2]": {"system": "Sprague-Dawley rats", "test": "Complete Freund's adjuvant (CFA)-induced thermal hyperalgesia", "type": "in vivo, rat", "details": "0.1, 1 or 10 mg/kg s.c., 1 hour post-dose, vs vehicle", "excerpt": "Briefly, adult male Sprague-Dawley rats (BioLasco, Taiwan) weighing 180±20 g on receipt were randomly assigned to treatment groups of n=8 per group. […] A subject was placed within a plastic box atop an elevated glass floor and a light beam located under the glass floor was directed at the plantar surface of the right hind paw. The time required for the animal to withdraw the paw from the thermal stimulus was automatically recorded. The intensity of the light was adjusted to evoke an average group baseline latency from 12-14 seconds (pre-CFA) and a cut-off latency of 20 seconds was imposed. The latency for paw withdrawal was obtained for each rat and defined as the heat pain threshold.\nTest substance, morphine and vehicle were administered by subcutaneous (s.c.) injection at time 0. The post-treatment level of thermal hyperalgesia was then measured at 60 minutes post-treatment. One-way ANOVA followed by Dunnett's test was applied for comparison between test substance treated groups and vehicle control group. Activity was considered significant at the P<0.05 level."}}}
{"smiles": "O=C(N[C@@H]1C2CCN(CC2)[C@H]1Cc1cccnc1)c1cc(F)cc(F)c1", "note": "[Compound A]", "values": [{"measurement": "Functional mode at the α7 NNR", "setting": "[1]", "value": "partial agonist"}, {"measurement": "Analgesic effect on CFA-induced thermal hyperalgesia", "setting": "[2]", "value": "not associated with any significant analgesic effect"}]}
